From patent US9234025B2, “Extracellular allosteric inhibitor binding domain from a tyrosine kinase receptor” (SANOFI, priority 2009, dated 2016)

Tested on: HUVEC
Assay: HUVEC in vitro angiogenesis
Assay type: cell-based, human
Conditions: low nanomolar range
Procedure: Collagen/matrigel gels are prepared by distributing in each well of a chamberslide (Biocoat Cellware collagen, Type I, 8-well culturesides: Becton dickinson 354630), 160 μl of 1/6 diluted matrigel (Growth factor reduced Matrigel: Becton dickinson 356230) in collagen I (rat Tail collagene, type I: Becton dickinson 354236). Polymerisation occurs at 37° C. for 1 h. Then, 15.10^3 HUVEC are added per well in 400 μl EBM medium (Clonetics C3121)+2% FCS+hEGF 10 μg/ml. Endothelial cells are stimulated with 10 ng/ml of FGF2 (R&D, 133-FB-025), FGF4 (R&D, 235-F4-025) or FGF19 (R&D, 969-FG-025) for 24 h at 37° C. in a CO2 chamber. Then, total length of pseudotubules is quantified using a bioimaging system (Imagenia Biocom, Courtaboeuf, France).

Structure (SMILES): COc1c(C)c(C(=O)c2ccc(N)c(C(=O)[O-])c2)n2ccccc12.[Na+] [SSR]
- FGF2-induced HUVEC in vitro angiogenesis: blocks FGF2-induced HUVEC angiogenesis
